Here are results for 37 compounds from US8501446B2 (Vertex Pharmaceuticals Incorporated, priority 2004, dated 2013).

Where only a bound is given, the exact number is not on record here.

By Ki is commonly meant a dissociation constant, usually derived from enzyme kinetics or from competition with a known ligand. A lower Ki goes with higher affinity.

Test [1] addresses T1, full length Aurora-A (AA 1-403) (Homo sapiens, UniProt O14965).
T1 construct: full length Aurora-A (AA 1-403)
T1 sequence (O14965 1-403): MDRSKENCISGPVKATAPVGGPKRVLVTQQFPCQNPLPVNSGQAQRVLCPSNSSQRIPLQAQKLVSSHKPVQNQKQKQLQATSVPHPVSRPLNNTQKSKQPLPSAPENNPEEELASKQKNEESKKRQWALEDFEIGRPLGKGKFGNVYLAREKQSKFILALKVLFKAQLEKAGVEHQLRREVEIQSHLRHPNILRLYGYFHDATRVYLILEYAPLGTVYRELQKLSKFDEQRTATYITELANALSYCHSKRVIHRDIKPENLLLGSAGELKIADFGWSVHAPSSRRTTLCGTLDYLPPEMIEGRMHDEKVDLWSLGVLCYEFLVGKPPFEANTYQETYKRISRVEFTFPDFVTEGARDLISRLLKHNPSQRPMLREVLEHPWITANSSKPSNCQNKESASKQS
As to the kind of experiment: Aurora-A inhibition assay, standard coupled enzyme system. It is filed as biochemical. Particulars: average Ki if more than one value determined. How it is done:
Compounds were screened for their ability to inhibit full length Aurora-A (AA 1-403) activity using a standard coupled enzyme system (Fox et al., Protein Sci. 7, pp. 2249 (1998)). Reactions were carried out in a solution containing 100 mM HEPES (pH 7.5), 10 mM MgCl2, 25 mM NaCl, 300 μM NADH, 1 mM DTT and 3% DMSO. Final substrate concentrations in the assay were 200 μM ATP (Sigma Chemicals, St Louis, Mo.) and 800 μM peptide (LRRASLG, American Peptide, Sunnyvale, Calif.). Reactions were carried out at 30° C. and 35 nM Aurora-A. Final concentrations of the components of the coupled enzyme system were 2.5 mM phosphoenolpyruvate, 200 μM NADH, 60 μg/ml pyruvate kinase and 20 μg/ml lactate dehydrogenase.
An assay stock buffer solution was prepared containing all of the reagents listed above with the exception of ATP and the test compound of interest. The assay stock buffer solution (60 μl) was incubated in a 96 well plate with 2 μl of the test compound of interest at final concentrations spanning 0.002 μM to 30 μM at 30° C. for 10 min. Typically, a 12 point titration was conducted by preparing serial dilutions (from 1 mM compound stocks) with DMSO of the test compounds in daughter plates. The reaction was initiated by the addition of 5 μl of ATP (final concentration 200 μM). Rates of reaction were obtained using a Molecular Devices Spectramax plate reader (Sunnyvale, Calif.) over 10 min at 30° C. The Ki values were determined from the rate data as a function of inhibitor concentration using computerized nonlinear regression (Prism 3.0, Graphpad Software, San Diego, Calif.). Aurora-C activity was screened in a similar manner using Aurora-C protein. Aurora-B activity was screened using a radioactive assay, such as described in Examples 1 and 2, but using Aurora-B protein.

In a further test the target is T2, ROCK I (AA 6-553) (Homo sapiens, UniProt Q13464).
T2 construct: ROCK I (AA 6-553)
As to the kind of experiment: ROCK inhibition assay, standard coupled enzyme system ("Enzyme"). It is filed as biochemical. Particulars: enzyme-linked assay. As for the experimental part:
Compounds were screened for their ability to inhibit ROCK I (AA 6-553) activity using a standard coupled enzyme system (Fox et al. (1998) Protein Sci. 7, 2249). Reactions were carried out in a solution containing 100 mM HEPES (pH 7.5), 10 mM MgCl2, 25 mM NaCl, 2 mM DTT and 1.5% DMSO. Final substrate concentrations in the assay were 45 μM ATP (Sigma Chemicals, St Louis, Mo.) and 200 μM peptide (American Peptide, Sunnyvale, Calif.). Reactions were carried out at 30° C. and 45 nM ROCK L. Final concentrations of the components of the coupled enzyme system were 2.5 mM phosphoenolpyruvate, 350 μM NADH, 30 μg/ml pyruvate kinase and 10 μg/ml lactate dehydrogenase.

T2 sequence (Q13464 6-553, species assumed): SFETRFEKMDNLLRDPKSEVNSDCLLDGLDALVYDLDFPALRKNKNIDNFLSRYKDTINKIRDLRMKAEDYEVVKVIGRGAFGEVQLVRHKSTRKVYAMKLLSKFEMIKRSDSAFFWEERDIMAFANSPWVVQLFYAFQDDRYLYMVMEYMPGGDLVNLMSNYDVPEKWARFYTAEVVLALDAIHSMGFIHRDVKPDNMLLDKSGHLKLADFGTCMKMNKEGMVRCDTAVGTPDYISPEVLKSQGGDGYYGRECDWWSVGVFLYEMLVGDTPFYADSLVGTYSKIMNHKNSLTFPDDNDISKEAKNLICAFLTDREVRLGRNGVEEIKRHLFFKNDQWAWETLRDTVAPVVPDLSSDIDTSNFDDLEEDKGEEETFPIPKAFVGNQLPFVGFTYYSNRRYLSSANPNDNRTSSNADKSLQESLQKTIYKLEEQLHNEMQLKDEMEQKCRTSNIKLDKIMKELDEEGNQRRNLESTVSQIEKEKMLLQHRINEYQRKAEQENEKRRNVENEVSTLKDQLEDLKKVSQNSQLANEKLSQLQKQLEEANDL

In the case of `Clc1cnc2[nH]cc(-c3cccc(Sc4ccccc4Cl)n3)c2c1` [Compound 248], the Ki was less than 500 nM in test [1] and 500 to 5000 nM at ROCK I (AA 6-553).

As for `COCCNC(=O)[C@H](C)Nc1nc(-c2c[nH]c3ncc(Cl)cc23)ncc1F` [Compound 392], the values for the inhibitory constant (Ki) (in test [1]; on ROCK I (AA 6-553)) were less than 500 nM and 500 to 5000 nM, respectively.

Regarding `C[C@H](Nc1nc(-c2c[nH]c3ncc(C#N)cc23)ncc1F)c1ccc(F)cc1` [Compound 394], the Ki in test [1] is less than 500 nM; at ROCK I (AA 6-553) it was 500 to 5000 nM.

Take `O=C(c1cccc(-c2c[nH]c3ncc(-c4cc(Cl)cc(Cl)c4)cc23)c1)N1CCOCC1` [Compound 225]: the Ki (in test [1]; at ROCK I (AA 6-553)) was 500 to 5000 nM in each case.

`CC(=O)N1CCN(c2cccc(-c3c[nH]c4ncc(Cl)cc34)n2)CC1` [Compound 276]: the Ki in test [1] was less than 500 nM; at ROCK I (AA 6-553), 500 to 5000 nM.

Turning to `Clc1cnc2[nH]cc(-c3cccc(NC4CCCC4)n3)c2c1` [Compound 289], the Ki is less than 500 nM in test [1] and 500 to 5000 nM on ROCK I (AA 6-553).

`C[C@H](Nc1nc(-c2c[nH]c3ncc(Cl)cc23)ncc1F)c1cccc(OCC(=O)O)c1` [Compound 336]: the Ki in test [1] is less than 500 nM; on ROCK I (AA 6-553), 500 to 5000 nM.

With `OCCNc1cccc(-c2c[nH]c3ncc(-c4ccccc4)cc23)n1` [Compound 277], the inhibition constant Ki (in test [1]; on ROCK I (AA 6-553)) was less than 500 nM throughout.

With `CS(=O)(=O)c1ccc(CNc2cccc(-c3c[nH]c4ncc(Cl)cc34)n2)cc1` [Compound 247], the results for the inhibition constant (Ki) (in test [1]; on ROCK I (AA 6-553)) were less than 500 nM and 500 to 5000 nM, respectively.

Regarding `OCCNc1cccc(-c2c[nH]c3ncc(Cl)cc23)n1` [Compound 270], the Ki (in test [1]; at ROCK I (AA 6-553)) was 500 to 5000 nM throughout.

With `C[C@H](Nc1nc(-c2c[nH]c3ncc(Cl)cc23)ncc1F)C(=O)N(C)C` [Compound 337], the figures for the inhibitory constant (Ki) (in test [1]; on ROCK I (AA 6-553)) were less than 500 nM and 500 to 5000 nM, respectively.

Regarding `Fc1cnc(-c2c[nH]c3ncc(Cl)cc23)nc1NCC1CCOC1` (centres unmarked) [Compound 373], the Ki was less than 500 nM in test [1] and 500 to 5000 nM at ROCK I (AA 6-553).

For the compound `Clc1ccc(CNc2cccc(-c3c[nH]c4ncc(-c5ccccc5)cc34)n2)cc1Cl` [Compound 261], the Ki (in test [1]; at ROCK I (AA 6-553)) was 500 to 5000 nM throughout.

`C[C@H](Nc1nc(-c2c[nH]c3ncc(Cl)cc23)ncc1F)C(=O)OC(C)(C)C` [Compound 351]: the figures for the inhibition constant Ki (in test [1]; at ROCK I (AA 6-553)) were less than 500 nM and 500 to 5000 nM, respectively.

As to `NC(=O)c1cccc(-c2c[nH]c3ncc(-c4ccc(F)cc4)cc23)c1` [Compound 228], the Ki (in test [1]; on ROCK I (AA 6-553)) was less than 500 nM each time.

For `O=C(Nc1cccc(-c2c[nH]c3ncc(Cl)cc23)n1)c1ccccc1` [Compound 249], the Ki in test [1] is less than 500 nM; at ROCK I (AA 6-553), 500 to 5000 nM.

On to `CS(=O)(=O)Nc1ccc(-c2cnc3[nH]cc(-c4ccc(C(N)=O)cc4)c3c2)cc1` [Compound 255], for which the Ki (in test [1]; on ROCK I (AA 6-553)) was less than 500 nM each time.

Turning to `CCCCNC(=O)c1cccc(-c2c[nH]c3ncc(-c4ccccc4)cc23)c1` [Compound 220], the inhibitory constant (Ki) (in test [1]; on ROCK I (AA 6-553)) was 500 to 5000 nM in each case.

For the compound `Clc1ccc(CNc2cccc(-c3c[nH]c4ncc(Cl)cc34)n2)c(Cl)c1` [Compound 244], the Ki (in test [1]; on ROCK I (AA 6-553)) was 500 to 5000 nM each time.

Consider `CN(Cc1ccccc1)c1cccc(-c2c[nH]c3ncc(Cl)cc23)n1` [Compound 274], for which the Ki in test [1] was less than 500 nM; on ROCK I (AA 6-553) it was 500 to 5000 nM.

Consider `COc1ccc(-c2c[nH]c3ncc(-c4ccc(F)cc4)cc23)cc1` [Compound 224], for which the Ki (in test [1]; on ROCK I (AA 6-553)) was less than 500 nM throughout.

Turning to `CNC(=O)c1cnc2[nH]cc(-c3ncc(F)c(N[C@@H](C)c4ccc(F)cc4)n3)c2c1` [Compound 309], the Ki (in test [1]; at ROCK I (AA 6-553)) was 500 to 5000 nM throughout.

Turning to `O=Cc1cc(-c2c[nH]c3ncc(Cl)cc23)nc(N2CCNCC2)c1` [Compound 409], the inhibition constant (Ki) (in test [1]; on ROCK I (AA 6-553)) was less than 500 nM in each case.

As for `C[C@H](Nc1nc(-c2c[nH]c3ncc(Cl)cc23)ncc1F)c1cccc(OCCCN(C)C)c1` [Compound 377], the results for the Ki (in test [1]; on ROCK I (AA 6-553)) were less than 500 nM and 500 to 5000 nM, respectively.

For the compound `Clc1cccc(Nc2cccc(-c3c[nH]c4ncc(Cl)cc34)n2)c1` [Compound 273], the values for the Ki (in test [1]; at ROCK I (AA 6-553)) were less than 500 nM and 500 to 5000 nM, respectively.

As for `Clc1cnc2[nH]cc(-c3cccc(NCc4ccc(Cl)c(Cl)c4)n3)c2c1` [Compound 251], the Ki in test [1] is less than 500 nM; at ROCK I (AA 6-553), 500 to 5000 nM.

On to `Clc1cnc2[nH]cc(-c3cccc(Br)n3)c2c1` [Compound 240], for which the values for the Ki (in test [1]; on ROCK I (AA 6-553)) were less than 500 nM and 500 to 5000 nM, respectively.

As for `Fc1cnc(-c2c[nH]c3ncc(Cl)cc23)nc1Nc1ccc(-n2ccnc2)cc1` [Compound 301], the Ki (in test [1]; on ROCK I (AA 6-553)) was 500 to 5000 nM throughout.

Regarding `NC(=O)c1ccc(Nc2nc(-c3c[nH]c4ncc(Cl)cc34)ncc2F)cc1` [Compound 295], the Ki in test [1] is less than 500 nM; at ROCK I (AA 6-553), 500 to 5000 nM.

With `CC(=O)c1ccc(-c2c[nH]c3ncc(-c4ccccc4)cc23)cc1` [Compound 231], the Ki (in test [1]; at ROCK I (AA 6-553)) was less than 500 nM in each case.

For the compound `COC(=O)c1cc(F)c(N[C@@H](C)c2ccc(F)cc2)nc1-c1c[nH]c2ncc(Cl)cc12` [Compound 396], the values for the inhibitory constant (Ki) (in test [1]; on ROCK I (AA 6-553)) were less than 500 nM and 500 to 5000 nM, respectively.

Turning to `CNC(=O)COc1cccc([C@H](C)Nc2nc(-c3c[nH]c4ncc(Cl)cc34)ncc2F)c1` [Compound 376], the inhibition constant (Ki) was less than 500 nM in test [1] and 500 to 5000 nM on ROCK I (AA 6-553).

Regarding `C[C@H](Nc1nc(-c2c[nH]c3ncc(Cl)cc23)ncc1F)C(=O)NC1CC1` [Compound 338], the figures for the inhibition constant Ki (in test [1]; at ROCK I (AA 6-553)) were less than 500 nM and 500 to 5000 nM, respectively.

For the compound `COc1ccc(CNc2cccc(-c3c[nH]c4ncc(Cl)cc34)n2)cc1` [Compound 258], the Ki in test [1] is less than 500 nM; at ROCK I (AA 6-553), 500 to 5000 nM.

On to `Fc1cnc(-c2c[nH]c3ncc(Cl)cc23)nc1NCC1CCOCC1` [Compound 366], for which the inhibition constant (Ki) was less than 500 nM in test [1] and 500 to 5000 nM at ROCK I (AA 6-553).

Take `CC(=O)NCc1ccc(-c2c[nH]c3ncc(-c4ccccc4)cc23)cc1` [Compound 230]: the Ki (in test [1]; on ROCK I (AA 6-553)) was 500 to 5000 nM throughout.

On to `CN(c1ccccc1)c1cccc(-c2c[nH]c3ncc(Cl)cc23)n1` [Compound 284], for which the Ki (in test [1]; on ROCK I (AA 6-553)) was 500 to 5000 nM each time.
